Results as given in ChEMBL document CHEMBL1201862, “PubChem BioAssay data set” (2004).
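These data come from cells grown in 96-well plates and exposed to compound for 48 hours at five concentrations. At the GI50, growth is halved.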 Calls of active or inactive are those of the source. No stated cut-off is given here; in the data, active = GI50 up to about 1.1 µM and inactive = higher.

Legend:
Assay in all cases: DTP human tumour cell line panel, 48 h
SW-620 = tested on: SW-620
PC-3 = tested on: PC-3
786-0 = tested on: 786-0
NCI/ADR-RES = tested on: NCI/ADR-RES
IGROV-1 = tested on: IGROV-1
SN12C = tested on: SN12C
OVCAR-5 = tested on: OVCAR-5
MDA-N = tested on: MDA-N
UO-31 = tested on: UO-31
SK-MEL-5 = tested on: SK-MEL-5
SNB-19 = tested on: SNB-19
LOX IMVI = tested on: LOX IMVI
MOLT-4 = tested on: MOLT-4
M14 = tested on: M14
KM12 = tested on: KM12
UACC-62 = tested on: UACC-62
NCI-H226 = tested on: NCI-H226
MCF7 = tested on: MCF7
RPMI-8226 = tested on: RPMI-8226
Malme-3M = tested on: Malme-3M

Row | SMILES | GI50 (SW-620) | GI50 (PC-3) | GI50 (786-0) | GI50 (NCI/ADR-RES) | GI50 (IGROV-1) | GI50 (SN12C) | GI50 (OVCAR-5) | GI50 (MDA-N) | GI50 (UO-31) | GI50 (SK-MEL-5) | GI50 (SNB-19) | GI50 (LOX IMVI) | GI50 (MOLT-4) | GI50 (M14) | GI50 (KM12) | GI50 (UACC-62) | GI50 (NCI-H226) | GI50 (MCF7) | GI50 (RPMI-8226) | GI50 (Malme-3M)
1 | Cc1ccc2c(c1)S(=O)(=O)c1ccc3ccccc3c1N2 | > 100 µM (inactive) | > 100 µM (inactive) | > 100 µM (inactive) | > 100 µM (inactive) | > 100 µM (inactive) | > 100 µM (inactive) | > 100 µM (inactive) | > 100 µM (inactive) | > 100 µM (inactive) | > 100 µM (inactive) | > 100 µM (inactive) | > 100 µM (inactive) | > 100 µM (inactive) | > 100 µM (inactive) | > 100 µM (inactive) | > 100 µM (inactive) | > 100 µM (inactive) | > 100 µM (inactive) |  | 
2 | CCCCCCCCCCCCOCC(COP(=O)(O)OCCN=[N+]=[N-])OC(=O)CCCCCCCCCCC (stereo unspecified) | > 100 µM (inactive) | > 100 µM (inactive) | > 100 µM (inactive) | > 100 µM (inactive) |  | > 100 µM (inactive) | > 100 µM (inactive) | > 100 µM (inactive) | > 100 µM (inactive) | > 100 µM (inactive) | > 100 µM (inactive) |  | > 100 µM (inactive) | > 100 µM (inactive) | > 100 µM (inactive) | > 100 µM (inactive) |  | > 100 µM (inactive) | > 100 µM (inactive) | > 100 µM (inactive)
3 | CCCCNC(=O)C1=C(C)NC(C)=C(C(=O)NCCCC)C1 | > 100 µM (inactive) |  | > 100 µM (inactive) | > 100 µM (inactive) | 61.1 µM (inactive) | > 100 µM (inactive) | > 100 µM (inactive) | > 100 µM (inactive) | > 100 µM (inactive) | 89.7 µM (inactive) | > 100 µM (inactive) | > 100 µM (inactive) | > 100 µM (inactive) | > 100 µM (inactive) | > 100 µM (inactive) | > 100 µM (inactive) | > 100 µM (inactive) | > 100 µM (inactive) |  | 
4 | COC(=O)c1c(O)ccc2c1c1c(n2CCc2ccc(OC)c(OC)c2)C(=O)c2ccccc2C1=O |  | 14.9 µM (inactive) | 13.8 µM (inactive) | 10.8 µM (inactive) | 14.6 µM (inactive) | 21.9 µM (inactive) | 19.7 µM (inactive) | 10.9 µM (inactive) | 13.7 µM (inactive) | 11.4 µM (inactive) | 22.5 µM (inactive) |  | 9.25 µM (inactive) | 14.2 µM (inactive) | 13 µM (inactive) | 15.2 µM (inactive) | 19.6 µM (inactive) | 17.9 µM (inactive) | 6.55 µM (inactive) | 14 µM (inactive)
5 | O=C(N/N=C1\CCc2ccccc2C1)N/N=C1\CCc2ccccc2C1 | > 10 µM (inactive) | > 10 µM (inactive) | > 10 µM (inactive) | > 10 µM (inactive) |  | > 10 µM (inactive) | > 10 µM (inactive) | > 10 µM (inactive) | > 10 µM (inactive) |  | > 10 µM (inactive) |  | > 10 µM (inactive) | > 10 µM (inactive) | > 10 µM (inactive) |  | > 10 µM (inactive) | > 10 µM (inactive) | > 10 µM (inactive) | > 10 µM (inactive)
6 | C=CCC1C(O[Si](C)(C)C(C)(C)C)C(CO[Si](C)(C)C(C)(C)C)OC1n1ccc(=O)[nH]c1=O (stereo unspecified) | 1.16 µM (inactive) | 1.53 µM (inactive) | 1.15 µM (inactive) | 1.66 µM (inactive) | 1.41 µM (inactive) | 1.38 µM (inactive) | 1.28 µM (inactive) | 1.51 µM (inactive) | 1.36 µM (inactive) | 1.51 µM (inactive) | 1.61 µM (inactive) | 0.705 µM (active) | 0.597 µM (active) | 1.42 µM (inactive) | 1.96 µM (inactive) | 1.73 µM (inactive) | 1.51 µM (inactive) | 1.15 µM (inactive) | 1.4 µM (inactive) | 
7 | CCOc1ccc(-n2c(=O)n3c(Nc4ccc(Cl)cc4)nc4c(c(=O)n(C)c(=O)n4C)n3c2=O)cc1 | 33.9 µM (inactive) | 47.6 µM (inactive) | 36.6 µM (inactive) | > 100 µM (inactive) | 37.4 µM (inactive) | 27.2 µM (inactive) | 37.6 µM (inactive) | 32.7 µM (inactive) | > 100 µM (inactive) | 19 µM (inactive) | > 100 µM (inactive) | 20.4 µM (inactive) | 23.9 µM (inactive) | > 10 µM (inactive) | 16 µM (inactive) | 18.1 µM (inactive) | 22.7 µM (inactive) | 57.3 µM (inactive) | 24 µM (inactive) | 
8 | CCOc1ccccc1/N=N/C1C(=O)N(C(=O)CC(=O)Nc2ccccc2OC)N=C1C (stereo unspecified) | > 100 µM (inactive) | > 100 µM (inactive) | 56.2 µM (inactive) | 54.7 µM (inactive) | 50.8 µM (inactive) | > 100 µM (inactive) | > 100 µM (inactive) | > 100 µM (inactive) | 27.8 µM (inactive) | > 100 µM (inactive) |  | > 100 µM (inactive) | > 100 µM (inactive) | > 100 µM (inactive) | > 100 µM (inactive) | 25.7 µM (inactive) | > 100 µM (inactive) | > 100 µM (inactive) | 45.2 µM (inactive) | > 100 µM (inactive)
9 | [O-][S+]1CC[S+]([O-])CC[S+]([O-])CC1 (stereo unspecified) | > 100 µM (inactive) | > 100 µM (inactive) | > 100 µM (inactive) | > 100 µM (inactive) | > 100 µM (inactive) | > 100 µM (inactive) | > 100 µM (inactive) | > 100 µM (inactive) | > 100 µM (inactive) | > 100 µM (inactive) | > 100 µM (inactive) | > 100 µM (inactive) | > 100 µM (inactive) | > 100 µM (inactive) | > 100 µM (inactive) | > 100 µM (inactive) |  | > 100 µM (inactive) |  | 
10 | COc1ccc2c(c1)[C@@H]1c3cc(OC)c(OC)cc3CCN1CCC2 | > 100 µM (inactive) | 73.5 µM (inactive) | > 100 µM (inactive) | > 100 µM (inactive) | > 100 µM (inactive) | > 100 µM (inactive) | > 100 µM (inactive) | > 100 µM (inactive) | 72.9 µM (inactive) | 36.7 µM (inactive) | > 100 µM (inactive) | 98.4 µM (inactive) | 33.3 µM (inactive) | > 100 µM (inactive) | > 100 µM (inactive) | > 100 µM (inactive) |  | 83.4 µM (inactive) | 54.8 µM (inactive) | > 100 µM (inactive)
11 | CC1(C)CO[P@@](=S)(c2ccccn2)O[C@@H]1c1ccccc1 | > 100 µM (inactive) | > 100 µM (inactive) | > 100 µM (inactive) | 75 µM (inactive) | > 100 µM (inactive) | > 100 µM (inactive) | > 100 µM (inactive) | > 100 µM (inactive) | 82.6 µM (inactive) | 95.1 µM (inactive) | > 100 µM (inactive) | > 100 µM (inactive) | 44.5 µM (inactive) | > 100 µM (inactive) | > 100 µM (inactive) | > 100 µM (inactive) | 76.2 µM (inactive) | > 100 µM (inactive) |  | > 100 µM (inactive)
12 | C/C(N)=C/C(=O)c1[nH]c(C(=O)O)cc1C1CCN(Cc2ccccc2)C1=O (stereo unspecified) | 46.1 µM (inactive) | 37.6 µM (inactive) | 26.7 µM (inactive) | 19.9 µM (inactive) | 27.2 µM (inactive) |  | 30.2 µM (inactive) | 23.7 µM (inactive) | 23.2 µM (inactive) | 15.3 µM (inactive) | 33.4 µM (inactive) |  | 24.4 µM (inactive) | 18.8 µM (inactive) | 31.9 µM (inactive) | 22.3 µM (inactive) |  | 24.2 µM (inactive) | 19.6 µM (inactive) | 18.8 µM (inactive)
13 | CC1OC(OC2C(O[C@H]3CC[C@@H]4C(=CC[C@@H]5[C@@]4(C)C(=O)C[C@]4(C)[C@@H]([C@H](C)CC[C@@H](O)C(C)(C)O)CC[C@@]54C)C3(C)C)OC(CO)C(O)C2O)C(O)C(O)C1O (stereo partly specified) | 35.3 µM (inactive) | > 100 µM (inactive) | > 100 µM (inactive) | > 100 µM (inactive) | 75.5 µM (inactive) | > 100 µM (inactive) | > 100 µM (inactive) | > 100 µM (inactive) | > 100 µM (inactive) | > 100 µM (inactive) | > 100 µM (inactive) | > 100 µM (inactive) | 37.2 µM (inactive) | > 100 µM (inactive) | > 100 µM (inactive) | > 100 µM (inactive) | > 100 µM (inactive) | > 100 µM (inactive) |  | > 100 µM (inactive)
14 | NC(=O)CC(N)C(N)=O (stereo unspecified) | > 100 µM (inactive) | > 100 µM (inactive) | > 100 µM (inactive) | > 100 µM (inactive) | > 100 µM (inactive) | > 100 µM (inactive) |  | > 100 µM (inactive) |  | > 100 µM (inactive) | > 100 µM (inactive) | > 100 µM (inactive) | > 100 µM (inactive) | > 100 µM (inactive) | > 100 µM (inactive) | > 100 µM (inactive) | > 100 µM (inactive) | > 100 µM (inactive) | > 100 µM (inactive) | > 100 µM (inactive)
15 | Nc1ccc([As](=O)(O)O)cc1 [ARSANILIC ACID] | > 100 µM (inactive) | > 100 µM (inactive) | > 100 µM (inactive) | > 100 µM (inactive) | > 100 µM (inactive) | > 100 µM (inactive) | > 100 µM (inactive) | > 100 µM (inactive) | > 100 µM (inactive) | > 100 µM (inactive) | > 100 µM (inactive) | > 100 µM (inactive) | > 100 µM (inactive) | > 100 µM (inactive) | > 100 µM (inactive) | > 100 µM (inactive) | > 100 µM (inactive) | > 100 µM (inactive) |  | > 100 µM (inactive)
